Among the data in patent US20030225081A1, “Pyridazinones and triazinones and medicinal use thereof” (priority 2000, published 2003) are IC50 values, retold here.

The test concerns AMPA receptor. As to the kind of experiment: Suppressing action to calcium influx into nerve cells induced by AMPA. Conditions: Fura2-AM, stimulation with 2 μM AMPA, primary culture of rat embryo cerebral cortex nerve cells, 1 μM MK-801. The test is classed as cell-based. From the text:
Suppressing Action to Calcium Influx into Nerve Cells Induced by AMPA
The suppressing action of the compounds of the present invention to calcium influx into nerve cells induced by AMPA was investigated using the primary culture system of nerve cells of cerebral cortex of embryo of rat.
Cerebral cortex was cut out from the brain of rat of gestational 18 days and treated with trypsin and DNase to disperse the cells. The cells were flown by MEM containing 10% of serum, sown in a culture bottle and astrocytes were proliferated. The astrocytes were re-dispersed by trypsin and sown in a 96-well plate. After incubation for one week, it was confirmed that the astrocytes covered all over the bottom and then the nerve cells of cerebral cortex which was dispersed by the above method were sown thereupon. After incubation for 24 hours, the medium was changed, the incubation was carried out for one week and, after that, the medium was changed to that containing 1 μM of MK-801. Nerve cells which were incubated for not shorter than 8 to 10 days were used.
Calcium influx into the cells was measured using Fura2-AM which was a calcium-sensitive fluorescent dye. It was treated in a medium containing Fura2-AM for 1 hour, incorporated into the cells, exchanged to a Tyrode solution containing 1 μM MK-801 and stimulation was carried out using 2 μM AMPA. Change in the amount of calcium flown into the cells were measured as the change in the fluorescent intensity at the exciting wave length of 340/380 nm. […] As the control compound, GYKI52466 (Le Peillet, et al., Brain Res., 571, 115, 1992) was used.

For orientation: IC50 means the concentration needed to halve the response being measured. Turning to `O=C1N(c2ccc(F)cc2)CC(c2ccccn2)=NN1c1ccccc1Br` [Example 122, 2-(2-Bromophenyl)-4-(4-fluorophenyl)-6-(2-pyridyl)-4,5-dihydro-1,2,4-triazin-3 (2H)-one], the IC50 is 200 nM.
The figure for `COc1ccccc1C1=NN(c2ccccc2Br)C(=O)N(c2ccsc2)C1` [Example 108, 2-(2-Bromophenyl)-6-(2-methoxyphenyl)-4-(thiophen-3-yl)-4,5-dihydro-1,2,4-triazin-3 (2H)-one] is 4000 nM; for `N#Cc1ccccc1N1N=C(c2ccccn2)CN(c2ccsc2)C1=O` [Example 101, 2-(2-Cyanophenyl)-6-(2-pyridyl)-4-(thiophene-3-yl)-4,5-dihydro-1,2,4-triazin-3 (2H)-one] it is 100 nM.
As for `Cc1cccc(-n2nc(-c3ccccn3)cc(-c3cccnc3)c2=O)c1` [Example 64, 2-(3-Tolyl)-4-(3-pyridyl)-6-(2-pyridyl)-3 (2H)-pyridazinone], the IC50 is 700 nM.
Regarding `O=C1N(c2cc(O)ccc2O)CC(c2ccccc2O)=NN1c1ccccc1Br` [Example 94, 2-(2-Bromophenyl)-4-(2,5-dihydroxyphenyl)-6-(2-hydroxyphenyl)-4,5-dihydro-1,2,4-triazin-3 (2H)-one], the IC50 is 900 nM.
The value for `O=C1C(C(O)c2ccccn2)CC(c2ccccc2)=NN1c1ccccc1` (centres unmarked) [Example 11, 2,6-Diphenyl-4-(a-hydroxy-2-picolyl)-4,5-dihydro-3 (2H)-pyridazinone] was 9900 nM.
The figure for `COc1ccccc1C1CC(c2ccccn2)=NN(c2ccccc2Br)C1=O` (centres unmarked) [Example 14, 2-(2-Bromophenyl)-4-(2-methoxyphenyl)-6-(2-pyridyl)-4,5-dihydro-3 (2H)-pyridazinone] is 200 nM.
Turning to `O=c1c(-c2cccc(OCCO)c2)cc(-c2ccccn2)nn1-c1ccccc1Br` [Example 3, 2-(2-Bromophenyl)-4-[3-(2-hydroxyethoxy)phenyl]-6-(2-pyridyl)-3 (2H)-pyridazinone], the IC50 worked out at 200 nM.
The figure for `COc1cccc(C2CC(c3ccccn3)=NN(c3ccccc3Br)C2=O)c1` (centres unmarked) [Example 1, 2-(2-Bromophenyl)-4-(3-methoxyphenyl)-6-(2-pyridyl)-4,5-dihydro-3 (2H)-pyridazinone] is 100 nM; for `O=C1C(c2ccccc2O)CC(c2ccccn2)=NN1c1ccccc1` (centres unmarked) [Example 33, 4-(2-Hydroxyphenyl)-2-phenyl-6-(2-pyridyl)-4,5-dihydro-3 (2H)-pyridazinone] it is 70 nM.
The value for `COc1ccc(C2CC(c3ccccn3)=NN(c3ccccc3Br)C2=O)cc1` (centres unmarked) [Example 15, 2-(2-Bromophenyl)-4-(4-methoxyphenyl)-6-(2-pyridyl)-4,5-dihydro-3 (2H)-pyridazinone] was 200 nM; that for `O=C1C(c2ccccc2OS(=O)(=O)C(F)(F)F)CC(c2ccccn2)=NN1c1ccccc1` (centres unmarked) [Example 38, 2-Phenyl-6-(2-pyridyl)-4-(2-trifluoromethylsulfonyloxyphenyl)-4,5-dihydro-3 (2H)-pyridazinone] was 400 nM; that for `O=c1c(-c2cccnc2)c2c(nn1-c1ccccc1I)-c1ccccc1OC2` [Example 58, 2-(2-Iodophenyl)-4-(3-pyridyl)-2,3-dihydro-5H-(1)benzopyrano[4,3-c]pyridazin-3-one] was 400 nM.
The figure for `COc1ccccc1C1CC(c2ccccn2)=NN(c2ccccc2C#N)C1=O` (centres unmarked) [Example 39, 2-(2-Cyanophenyl)-4-(2-methoxyphenyl)-6-(2-pyridyl)-4,5-dihydro-3 (2H)-pyridazinone] is 50 nM; for `N#Cc1ccc(-n2nc(-c3ccccn3)cc(-c3ccccc3)c2=O)cn1` [Example 80A, 2-(2-Cyanopyridin-5-yl)-4-phenyl-6-(2-pyridyl)-3 (2H)-pyridazinone] it is 7100 nM; for `O=c1c(-c2ccccc2)cc(-c2ccccn2)nn1-c1ccccc1Br` [Example 56, 2-(2-Bromophenyl)-4-phenyl-6-(2-pyridyl)-3 (2H)-pyridazinone] it is 200 nM.
Consider `O=C1N(c2cc(O)ccc2O)CC(c2ccccc2O)=NN1c1ccccc1` [Example 95, 4-(2,5-Dihydroxyphenyl)-6-(2-hydroxyphenyl)-2-phenyl-4,5-dihydro-1,2,4-triazin-3 (2H)-one], for which the IC50 turned out to be 50 nM.
In the case of `O=C1N(c2ccccc2)CC(c2ccccc2)=NN1c1ccccc1Br` [Example 112, 2-(2-Bromophenyl)-4,6-diphenyl-4,5-dihydro-1,2,4-triazin-3 (2H)-one], the IC50 was 300 nM.
The value for `N#Cc1ccccc1N1N=C(c2ccccn2)CC(c2ccccc2O)C1=O` (centres unmarked) [Example 41, 2-(2-Cyanophenyl)-4-(2-hydroxyphenyl)-6-(2-pyridyl)-4,5-dihydro-3 (2H)-pyridazinone] was 30 nM; that for `COc1ccccc1C1=NN(c2ccccc2)C(=O)N(c2ccccc2Br)C1` [Example 115, 4-(2-Bromophenyl)-6-(2-methoxyphenyl)-2-phenyl-4,5-dihydro-1,2,4-triazin-3 (2H)-one] was 7200 nM.
The figure for `N#Cc1ccccc1N1N=C(c2ccccc2O)CN(c2ccccc2)C1=O` [Example 93, 2-(2-Cyanophenyl)-6-(2-hydroxyphenyl)-4-phenyl-4,5-dihydro-1,2,4-triazin-3 (2H)-one] is 30 nM.
The figure for `N#Cc1ccccc1N1N=C(c2ccccn2)CN(c2cccc([N+](=O)[O-])c2)C1=O` [Example 127, 2-(2-Cyanophenyl)-4-(3-nitrophenyl)-6-(2-pyridyl)-4,5-dihydro-1,2,4-triazin-3 (2H)-one] is 400 nM; for `CN(C)CCOc1ccccc1C1=NN(c2ccccc2Br)C(=O)N(c2ccccc2)C1` [Example 91, 2-(2-Bromophenyl)-6-(2-dimethylaminoethoxyphenyl)-4-phenyl-4,5-dihydro-1,2,4-triazin-3 (2H)-one] it is 300 nM; for `O=c1c(-c2ccccc2OS(=O)(=O)C(F)(F)F)cc(-c2ccccn2)nn1-c1ccccc1` [Example 55, 2-Phenyl-6-(2-pyridyl)-4-(2-trifluoromethylsulfonyloxyphenyl)-3 (2H)-pyridazinone] it is 800 nM.
Consider `Cc1cccc(N2CC(c3ccccn3)=NN(c3ccccc3Br)C2=O)c1` [Example 124, 2-(2-Bromophenyl)-4-(3-tolyl)-6-(2-pyridyl)-4,5-dihydro-1,2,4-triazin-3 (2H)-one], for which the concentration for half-maximal inhibition (IC50) is 200 nM.
Consider `COc1ccccc1-c1cc(-c2ccccn2)c(=O)n(-c2ccccc2Br)n1` [Example 5, 2-(2-Bromophenyl)-6-(2-methoxyphenyl)-4-(2-pyridyl)-3 (2H)-pyridazinone], for which the IC50 was determined as 6700 nM.
The figure for `COc1ccccc1C1=NN(c2ccccc2Br)C(=O)N(c2ccccc2)C1` [Example 89, 2-(2-Bromophenyl)-6-(2-methoxyphenyl)-4-phenyl-4,5-dihydro-1,2,4-triazin-3 (2H)-one] is 5000 nM.
The figure for `N#Cc1ccccc1-n1nc(-c2nccs2)cc(-c2ccccc2)c1=O` [Example 83, 2-(2-Cyanophenyl)-4-phenyl-6-(thiazol-2-yl)-3 (2H)-pyridazinone] is 600 nM.
The figure for `COc1ccc(N2CC(c3ccccn3)=NN(c3ccccc3)C2=O)c(OC)c1` [Example 107, 4-(2,4-Dimethoxyphenyl)-2-phenyl-6-(2-pyridyl)-4,5-dihydro-1,2,4-triazin-3 (2H)-one] is 300 nM.
